Experimental data as given in paper PMC3234688 (2011).

System: tubulin (αβ-tubulin; colchicine site in β-subunit)
Assay: [3H]colchicine competition on purified tubulin
Assay type: biochemical

SMILES | IC50
O=c1cc(-c2ccccc2)[nH]c2ccc3c(ccn3CC3CC3)c12 [MG-2477, 3-cyclopropylmethyl-7-phenyl-3H-pyrrolo[3,2-f]quinolin-9(6H)-one] | 900 nM
COc1ccc(/C=C\c2cc(OC)c(OC)c(OC)c2)cc1O [combretastatin A-4] | 1200 nM
